According to ChEMBL document CHEMBL5149994, “Anticancer potential of indirubins in medicinal chemistry: Biological activity, structural modification, and structure-activity relationship” (Eur J Med Chem, 2021):
Values after ≈ are worked out from the molar mass of the structure shown.

Experiments:
A549 [1] = test: Antiproliferative activity against human A549 cells assessed as cell growth inhibition measured after 24 hrs by MTT assay; assay type: functional, cell-based; details: A549, 24 h
SNU-638 = test: Antiproliferative activity against human SNU-638 cells assessed as cell growth inhibition measured after 24 hrs by MTT assay; assay type: functional, cell-based; details: SNU-638, 24 h
HT-1080 = test: Antiproliferative activity against human HT-1080 cells assessed as cell growth inhibition measured after 24 hrs by MTT assay; assay type: functional, cell-based; details: HT-1080, 24 h
[2] = Cytotoxicity against rat RK3E cells harboring RAS assessed as cell growth inhibition measured after 24 hrs by MTT assay; assay type: toxicity, cell-based
[3] = Inhibition of starfish oocyte CDK1/Cyclin B using histone H1 as substrate incubated for 10 mins in presence of [gamma-32P]ATP by scintillation counter analysis; design: species or system Marthasterias glacialis
[4] = molecular target: Cyclin-dependent kinase 5/CDK5 activator 1 (Homo sapiens, UniProt Q00535); test: Inhibition of CDK5/p35 (unknown origin); assay type: protein-complex assay
[5] = Inhibition of GST-tagged recombinant human CDK2/cyclin E expressed in Sf9 cells incubated for 10 mins in presence of [33P]-gamma ATP and ATP by scintillation counter method
MCF7 [6] = test: Cytotoxicity against human MCF7 cells assessed as cell growth inhibition measured after 4 days by crystal violet staining based assay; assay type: functional; details: MCF7, 96 h
[7] = Kinetic solubility of compound in PBS at pH 7.4; assay type: physicochemical; details: read-out: Kinetic_solubility
CDK2/Cyclin A2 = CDK2/Cyclin A2 (Homo sapiens, UniProt P24941); test: Inhibition of CDK2/cyclin A (unknown origin); assay type: protein-complex assay
HL-60 [8] = test: Cytotoxicity against human HL-60 cells assessed as cell growth inhibition; assay type: functional, cell-based
MCF7 [9] = test: Cytotoxicity against human MCF7 cells assessed as cell growth inhibition; assay type: functional, cell-based
SK-MEL19 = test: Cytotoxicity against human SK-MEL19 cells assessed as cell growth inhibition measured after 24 hrs by WST-1 assay; assay type: functional, cell-based; details: SK-MEL19, 24 h
[10] = Cytotoxicity against human SK-MEL-29 cells assessed as cell growth inhibition measured after 24 hrs by WST-1 assay; assay type: functional, cell-based; details: SK-MEL-29, 24 h
SK-MEL-103 = test: Cytotoxicity against human SK-MEL-103 cells assessed as cell growth inhibition measured after 24 hrs by WST-1 assay; assay type: functional, cell-based; details: SK-MEL-103, 24 h
NCI-H157 = test: Cytotoxicity against human NCI-H157 cells assessed as cell growth inhibition at 100 uM by calcein-AM staining based flow cytometry analysis relative to control; assay type: functional; design: scale not given: the % may be the effect or the level left
DU-145 = test: Antiproliferative activity against human DU-145 cells assessed as cell growth inhibition by MTT assay; assay type: functional, cell-based
A549 [11] = test: Antiproliferative activity against human A549 cells assessed as cell growth inhibition measured after 96 hrs by MTT assay; assay type: functional, cell-based; details: A549, 96 h
CH1 = test: Antiproliferative activity against human CH1 cells assessed as cell growth inhibition measured after 96 hrs by MTT assay; assay type: functional, cell-based; details: CH1, 96 h
SW480 [12] = test: Antiproliferative activity against human SW480 cells assessed as cell growth inhibition measured after 96 hrs by MTT assay; assay type: functional, cell-based; details: SW480, 96 h
SW480 [13] = test: Antiproliferative activity against human SW480 cells assessed as cell growth inhibition; assay type: functional, cell-based
[14] = Antiproliferative activity against human Lu1 cells assessed as cell growth inhibition; assay type: functional, cell-based
HepG2 [15] = test: Antiproliferative activity against human HepG2 cells assessed as cell growth inhibition; assay type: functional, cell-based
HL-60 [16] = test: Antiproliferative activity against human HL-60 cells assessed as cell growth inhibition; assay type: functional, cell-based
HepG2 [17] = test: Antiproliferative activity against human HepG2 cells assessed as cell growth inhibition measured after 72 hrs by MTT assay; assay type: functional, cell-based; details: HepG2, 72 h
[18] = Antiproliferative activity against human Lu1 cells assessed as cell growth inhibition measured after 72 hrs by MTT assay; assay type: functional, cell-based; details: Lu1, 72 h
SW480 [19] = test: Antiproliferative activity against human SW480 cells assessed as cell growth inhibition measured after 72 hrs by MTT assay; assay type: functional, cell-based; details: SW480, 72 h
HL-60 [20] = test: Antiproliferative activity against human HL-60 cells assessed as cell growth inhibition measured after 72 hrs by MTT assay; assay type: functional, cell-based; details: HL-60, 72 h
MCF7 [21] = test: Cytotoxicity against human MCF7 cells assessed as cell growth inhibition by MTT assay; assay type: functional, cell-based
LoVo = test: Cytotoxicity against human LoVo cells assessed as cell growth inhibition by MTT assay; assay type: functional, cell-based
LNCaP = test: Cytotoxicity against human LNCaP cells assessed as cell growth inhibition by MTT assay; assay type: functional, cell-based
MV4-11 = test: Cytotoxicity in human MV4-11 cells assessed as cell growth inhibition incubated for 48 hrs by propidium iodide staining based flow cytometry assay; assay type: functional

Sequence of Cyclin-dependent kinase 5/CDK5 activator 1 (Q00535 whole entry): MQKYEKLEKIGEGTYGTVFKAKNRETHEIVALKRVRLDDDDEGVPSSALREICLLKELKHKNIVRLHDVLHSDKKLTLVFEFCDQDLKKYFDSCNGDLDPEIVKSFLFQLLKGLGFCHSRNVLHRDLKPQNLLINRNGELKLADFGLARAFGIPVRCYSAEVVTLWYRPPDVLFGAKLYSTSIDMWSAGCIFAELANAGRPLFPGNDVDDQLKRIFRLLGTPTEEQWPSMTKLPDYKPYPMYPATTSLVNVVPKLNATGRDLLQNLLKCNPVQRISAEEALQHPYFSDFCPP
Sequence of Cyclin-dependent kinase 5/CDK5 activator 1 (Q15078 whole entry, further chain): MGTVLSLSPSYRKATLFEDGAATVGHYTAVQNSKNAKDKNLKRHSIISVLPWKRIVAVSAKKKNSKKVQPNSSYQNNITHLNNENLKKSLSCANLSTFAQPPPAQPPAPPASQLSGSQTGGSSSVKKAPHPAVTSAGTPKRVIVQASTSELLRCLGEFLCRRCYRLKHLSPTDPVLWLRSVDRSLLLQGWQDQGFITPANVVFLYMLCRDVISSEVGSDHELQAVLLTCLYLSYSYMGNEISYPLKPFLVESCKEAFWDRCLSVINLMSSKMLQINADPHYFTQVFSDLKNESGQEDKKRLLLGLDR

With `O=C1Nc2ccc(F)cc2/C1=C1/Nc2ccccc2/C1=N\O` the IC50 (A549 [1]) was 12.2 µM, the IC50 (SNU-638) was 2.1 µM and the IC50 (HT-1080) was 3.4 µM. For the same compound, the IC50 at 24 h [2] was 5.1 µM.

Work on `O=C1Nc2ccc(S(=O)(=O)O)cc2/C1=C1/Nc2ccccc2C1=O` yielded an IC50 [3] of 0.055 µM and an IC50 [4] of 0.065 µM.

In the case of `CN(C)S(=O)(=O)c1ccc2c(c1)/C(=C1/Nc3ccccc3C1=O)C(=O)N2`, the IC50 [5] is reported as 0.04 µM, the IC50 (MCF7 [6]) is reported as > 10 µM and the solubility kinetic [7] is reported as < 1 µg/mL.

With `O=C1Nc2ccccc2/C1=C1/Nc2ncccc2C1=O` the IC50 (CDK2/Cyclin A2) was 8.8 µM.

`CN(C)CCN1C(=O)/C(=C2\Nc3ccccc3C2=O)c2ccccc21` gave an IC50 (HL-60 [8]) of 4.45 µM.

`O=C1Nc2ccc([N+](=O)[O-])cc2/C1=C1/Nc2ccccc2/C1=N\O` gave an IC50 at 24 h [2] of 1 µM.

With `C[C@@H]1O[C@H](N2C(=O)/C(=C3\Nc4ccc(Cl)cc4C3=O)c3ccccc32)[C@H](O)[C@H](O)[C@H]1O` the IC50 (MCF7 [9]) was 6.96 µM.

`C[C@@H]1O[C@H](N2C(=O)/C(=C3\Nc4ccccc4C3=O)c3ccccc32)[C@H](O)[C@H](O)[C@H]1O` gave an IC50 (MCF7 [9]) of 0.67 µM, an IC50 (SK-MEL19) of 65.4 µM and an IC50 [10] of 86.6 µM. It also gave an IC50 (SK-MEL-103) of 383 µM.

Work on `CC(C)(C)C(=O)Nc1ccc2c(c1)/C(=C1/Nc3ccccc3/C1=N\O)C(=O)N2` yielded an IC50 (A549 [1]) of 6.4 µM, an IC50 (SNU-638) of 6.5 µM and an IC50 (HT-1080) of 4.2 µM. For the same compound, the IC50 at 24 h [2] was 6.4 µM.

`C[C@@H]1O[C@H](N2C(=O)/C(=C3\[Se]c4ccccc4C3=O)c3ccccc32)[C@H](O)[C@H](O)[C@H]1O` gave an Activity (NCI-H157) of 16.7%.

`CN1C(=O)/C(=C2\Nc3ccc(Cl)cc3\C2=N/O)c2cccnc21` showed an IC50 (DU-145) of 1.8 µM.

`NCCO/N=C1/C(=C2/C(=O)Nc3ccccc32)Nc2ccc(O)cc21` gave an IC50 (A549 [11]) of 13 µM, an IC50 (CH1) of 1.3 µM and an IC50 (SW480 [12]) of 2.5 µM.

With `Cc1cccc(Nc2nnc(SCC(O)CO/N=C3/C(=C4/C(=O)Nc5ccccc54)Nc4ccccc43)s2)c1C` (stereo unspecified) the IC50 (SW480 [13]) was 16 µM, the IC50 [14] was 19.1 µM and the IC50 (HepG2 [15]) was 15.3 µM. For the same compound, the IC50 (HL-60 [16]) was 12 µM.

With `CN(C)CCN(C)S(=O)(=O)c1ccc2c(c1)/C(=C1/Nc3ccccc3/C1=N\O)C(=O)N2` the IC50 [5] was 0.04 µM, the IC50 (MCF7 [6]) was < 0.1 µM and the solubility kinetic [7] was 18 µg/mL (≈ 40.8 µM).

For `O=C1/C(=C2/C(=O)N(CC(O)CSc3nnc(Nc4ccccc4)s3)c3ccccc32)Nc2ccccc21` (stereo unspecified), the IC50 (SW480 [13]) was 1.65 µM, the IC50 [14] was 2.21 µM and the IC50 (HepG2 [15]) was 1.9 µM. For the same compound, the IC50 (HL-60 [16]) was 1.35 µM.

Work on `CCCOc1cccc(/C=C/C(=O)c2ccc(OCCn3cc(CN4C(=O)/C(=C5\Nc6ccccc6\C5=N/O)c5ccccc54)nn3)cc2O)c1` yielded an IC50 (HepG2 [17]) of 2.95 µM, an IC50 [18] of 2.5 µM and an IC50 (SW480 [19]) of 2.91 µM. It also gave an IC50 (HL-60 [20]) of 1.29 µM.

With `CN(C)S(=O)(=O)c1ccc2c(c1)/C(=C1/Nc3ccccc3/C1=N\O)C(=O)N2` the IC50 [5] was 0.04 µM, the IC50 (MCF7 [6]) was 0.4 µM and the solubility kinetic [7] was < 1 µg/mL.

In the case of `CCCN1C(=O)/C(=C2\Nc3ccccc3\C2=N/O)c2ccccc21`, the IC50 (MCF7 [21]) is reported as 87.6 µM, the IC50 (LoVo) is reported as 67.5 µM and the IC50 (LNCaP) is reported as 77.1 µM.

`COC(=O)c1ccc2c(c1)/C(=C1/Nc3ccccc3/C1=N\O)C(=O)N2` showed a GI50 (MV4-11) of 0.0541 µM.

In the case of `CN(C)CCN(C)S(=O)(=O)c1ccc2c(c1)/C(=C1/Nc3ccccc3C1=O)C(=O)N2`, the IC50 [5] is reported as 0.01 µM, the IC50 (MCF7 [6]) is reported as < 0.1 µM and the solubility kinetic [7] is reported as 12 µg/mL (≈ 28.1 µM).

For `O=C1Nc2ccccc2/C1=C1/Nc2ccccc2/C1=N\OCC(O)CSc1nnc(Nc2ccccc2)s1` (stereo unspecified), the IC50 (SW480 [13]) was 16.4 µM, the IC50 [14] was 16.9 µM and the IC50 (HepG2 [15]) was 17.7 µM. It also gave an IC50 (HL-60 [16]) of 9.52 µM.

In the case of `CN1C(=O)/C(=C2\Nc3ccc(Cl)cc3C2=O)c2cccnc21`, the IC50 (DU-145) is reported as 8 µM.
